This is an account of results in ChEMBL document CHEMBL4118226, “Discovery of Highly Isoform Selective Orally Bioavailable Phosphoinositide 3-Kinase (PI3K)-γ Inhibitors” (J Med Chem, 2018).

Series [1] can be described thus: Intrinsic clearance in rat hepatocytes assessed as per million cells. The series is classed as ADME, cell-based, Hepatocyte. The settings on record: read-out: CLH.
Series [2] in a line: Lipophilicity, log D of the compound at pH 7.4. Type of series: physicochemical. Particulars: buffer.
Series [3] can be described thus: Volume of distribution at steady state in dog. Type of series: ADME, organism-based, Canis lupus familiaris. The settings on record: in vivo, read-out: Vdss.
Series [4] in a line: Clearance in rat. Type of series: ADME, organism-based. Particulars: in vivo.
Series [5] can be described thus: Clearance in dog. Type of series: ADME, organism-based, Canis lupus familiaris. The settings on record: in vivo.
The nature of series [6]: Oral bioavailability in rat. Type of series: ADME, organism-based. Particulars: in vivo.
Series [7] can be described thus: Half life in rat. The series is classed as ADME, organism-based. The settings on record: in vivo.
The nature of series [8]: Intrinsic clearance in dog hepatocytes assessed as per million cells. The series is classed as ADME, cell-based, Canis lupus familiaris, Hepatocyte. The settings on record: read-out: CLH.
A short description of series [9]: Intrinsic clearance in human hepatocytes assessed as per million cells. Type of series: ADME, cell-based, Hepatocyte. The settings on record: read-out: CLH.
The nature of series [10]: Oral bioavailability in dog. Type of series: ADME, organism-based, Canis lupus familiaris. Particulars: in vivo.
A short description of series [11]: Volume of distribution at steady state in rat. Type of series: ADME, organism-based. The settings on record: in vivo, read-out: Vdss.
Series [12] in a line: Half life in dog. Type of series: ADME, organism-based, Canis lupus familiaris. The settings on record: in vivo.

Each structure is given as a SMILES string.

By logD is commonly meant lipophilicity at a set pH, counting ionised and neutral species. A low value points to lower lipophilicity. As usually defined, the clearance is the volume of plasma or blood freed of the substance per unit of time. Low readings indicate a low capacity for elimination, high ones a high capacity for elimination. In general, bioavailability refers to dose-corrected exposure relative to a reference, in per cent. High values mean good availability, low ones poor availability. Broadly, the half-life is the time needed for the level to fall by half in the phase considered. Low values mean fast loss, high ones slow loss.

Consider `Cc1cc(-c2cnc3[nH]ccc3n2)cc2c1C(=O)N([C@@H](C)C1CC1)C2`, for which the hepatocyte CLint in [1] came out at 146 µL/min/1e6 cells. Further, the logD in series [2] was determined as 4.3.

As to `CC(=O)Nc1nc(C)c(-c2cc3c(c(S(=O)(=O)CCCO)c2)C(=O)N([C@@H](C)C2CC2)C3)s1`, the hepatocyte CLint in [1] was found to be 6 µL/min/1e6 cells. The same compound registered a logD in [2] of 1.9.

In the case of `CC(=O)Nc1nc(C)c(-c2cc(Cl)c3c(c2)CN([C@@H](C)C2CC2)C3=O)s1`, in [1], the hepatocyte CLint is 3 µL/min/1e6 cells. This compound also showed a logD in series [2] of 3.9.

On to `CC(=O)Nc1ncc(-c2cc(Cl)c3c(c2)CN([C@@H](C)C2CC2)C3=O)s1`, for which, in series [1], the hepatocyte CLint came out at 2 µL/min/1e6 cells. Further, the logD in series [2] is 3.8.

As for `C[C@@H](C1CC1)N1Cc2cc(-c3cnc(N)nc3)cc(Cl)c2C1=O`, the hepatocyte CLint in series [1] amounted to 2 µL/min/1e6 cells. Also, the logD in series [2] is 2.6.

With `Cc1cc(-c2nccnc2N)cc2c1C(=O)N([C@@H](C)C1CC1)C2`, in [1], the hepatocyte CLint was found to be 43 µL/min/1e6 cells. The same compound returned a logD in [2] of 2.6.

On to `CC(=O)Nc1nc(C)c(-c2cc3c(c(S(N)(=O)=O)c2)C(=O)N([C@@H](C)C2CC2)C3)s1`, for which the hepatocyte CLint in series [1] is under 2 µL/min/1e6 cells. The logD in [2] was determined as 2.5.

In the case of `COCCS(=O)(=O)Nc1cc(-c2sc(NC(C)=O)nc2C)cc2c1C(=O)N([C@@H](C)C1CC1)C2`, in series [1], the hepatocyte CLint stood at 166 µL/min/1e6 cells. The compound also displayed a logD in series [2] of 3.5.

Take `CC(=O)Nc1nc(C)c(-c2cc3c(c(NS(C)(=O)=O)c2)C(=O)N([C@@H](C)C2CC2)C3)s1`: the results for the Vd in series [3] and in series [11] were 0.7 L/kg and 0.4 L/kg, respectively. Moreover, the clearance in series [4] was 0.7 mL/min/kg; in series [5], 6.2 mL/min/kg. Moreover, the hepatocyte CLint in [1] was 3.7 to 4 µL/min/1e6 cells; in series [8] it was 7.6 µL/min/1e6 cells; in series [9], 3.4 µL/min/1e6 cells. Moreover, in series [2], the logD worked out at 3.3. Further, the results for the bioavailability in [6] and in series [10] were 49% and 1.6%, respectively. In addition, the half-life in series [7] was 6.7 h; in series [12], 1.3 h.

With `CNS(=O)(=O)c1cc(-c2sc(NC(C)=O)nc2C)cc2c1C(=O)N([C@@H](C)C1CC1)C2`, the Vd in [3] was determined as 2.2 L/kg; in series [11], 1 L/kg. Also, the clearance in series [4] was 4.4 mL/min/kg; in series [5], 2.1 mL/min/kg. The figures for the hepatocyte CLint in [1], in [8] and in [9] were 4.5 to 5 µL/min/1e6 cells, 2.1 µL/min/1e6 cells and 0.5 µL/min/1e6 cells, respectively. The logD in [2] is 3. In addition, the values for the bioavailability in [6] and in [10] were 30% and 44%, respectively. Further, the half-life in series [7] was 2.6 h; in series [12], 12 h.

For the compound `CC(=O)Nc1nc(C)c(-c2cc(C)c3c(c2)CN([C@@H](C)C2CC2)C3=O)s1`, in [1], the hepatocyte CLint is 11 µL/min/1e6 cells. Besides, the logD in [2] stood at 4.3.

For the compound `CC(=O)Nc1nc(C)c(-c2cc3c(c(S(C)(=O)=O)c2)C(=O)N([C@@H](C)C2CC2)C3)s1`, the Vd in [3] turned out to be 1.1 L/kg; in [11] it was 1.2 L/kg. The clearance in [4] was found to be 6.3 mL/min/kg. Moreover, the values for the hepatocyte CLint in series [1], in series [8] and in series [9] were 1.7 to 2 µL/min/1e6 cells, 1 µL/min/1e6 cells and 0.4 µL/min/1e6 cells, respectively. The compound also came in with a logD in series [2] of 2.4. The compound further registered a bioavailability in [6] of 51%. The values for the half-life in [7] and in series [12] were 2.3 h and 3.9 h, respectively.

Turning to `CNC(=O)c1nc(-c2cc(C)c3c(c2)CN([C@@H](C)C2CC2)C3=O)cnc1N`, the hepatocyte CLint in series [1] is 4 µL/min/1e6 cells. The logD in [2] amounted to 3.8.

With `CC(=O)Nc1nc(C)c(-c2cc(Cl)c3c(c2)CN([C@H](C)C2CC2)C3=O)s1`, the hepatocyte CLint in [1] amounted to 6 µL/min/1e6 cells. This compound displayed a logD in series [2] of 3.9.

Take `COCCNS(=O)(=O)c1cc(-c2sc(NC(C)=O)nc2C)cc2c1C(=O)N([C@@H](C)C1CC1)C2`: the hepatocyte CLint in [1] turned out to be 56 µL/min/1e6 cells. Besides, the logD in series [2] stood at 2.7.
